Results: patent publication US20260272879A1, “ANION-BINDING AROMATIC OLIGOAMIDE MACROCYCLES AND METHODS OF MAKING AND USING SAME” (The Research Foundation for The State University of New York, priority 2023, published 2026)

Key:
[1] = 1H NMR titration, binding of IO4^−; details: DMSO-d6:CDCl3 (15:85, v/v), 25° C., NMR titration (protons a and b)
Method: ^1H NMR titration methods. Titrations of c5a and c5b with anions as their tetra-n-butylammonium (TBA), tetra-ethylammonium (TEA) and tetra-methylammonium (TMA) salts were carried out by ^1H NMR (400 MHz) at 25° C. 0.4 mL of corresponding hosts solutions were prepared in the rubber-cap NMR tubes. Aliquots of concentrated guest solution containing hosts were added into the NMR tubes using 20 microliter pipette. An initial ^1H NMR spectrum was collected and additional spectra were obtained after each injection of guest solution. All titration ^1H NMR spectra were stacked together and the chemical shifts of the internal aromatic CH proton were then fitted to 1:1 binding model using BindFit v0.5 (http://app.supramolecular.org/bindfit/) to evaluate binding constants to anions.

[2] = tested on: Human bronchial epithelial (HBE) cells from cystic fibrosis (CF) patients; assay: Airway surface liquid (ASL) thickness, confocal imaging; format: cell-based; details: CF HBE cultures, c5a 5 μM with 1% DMSO in PBS apically daily for five days
Method: Primary Cell Culture. Human bronchial epithelial (HBE) cells from cystic fibrosis (CF) patients (DF508 homozygous) were obtained from the UNC-CF Tissue Culture Core under the auspices of protocols approved by the UNC Institutional Review Board using previously reported methodologies. Cultures on 12-mm permeable supports (Transwell-Clear; Costar) were maintained in a well-humidified (>95%) incubator (5% CO2) at 37° C. during cellular differentiation (3-4 weeks after plating).
Confocal imaging studies. CF HBE cultures were treated with apically with c5a (5 μM in 1% DMSO) or vehicle control (1% DMSO in PBS) daily for 5 days prior to imaging. The height of the luminal airway surface layer (ASL) was visualized by adding a cell-impermeant dye (Texas Red-dextran 70 kDa; 0.1%) to the c5a and vehicle control on the evening prior to imaging. […] The thickness of the ASL layer in c5a and control cultures were measured by high-speed X-Z confocal scanning. […]
Human bronchial epithelial (HBE) cells isolated from CF patients were cultured at the time of lung transplant as a model system for diseased airways. […] The thickness of the ASL layer on the surface of the HBE cell layer can be conveniently measured by determining the thickness of the fluorescently-labeled fluid layer on the airway surface using X-Z confocal scanning microscopy (FIG. 117b). […]

[3] = Ion transport with different MCl salts, HPTS assay; format: biochemical; details: POPC LUVs, 100 mM MCl, pH 7.0, 25° C.
Method: Inside vesicles: 10 mM HEPES, 100 mM MCI (M=Li, Na, K, Rb), 1 mM HPTS, pH 7.0. Outside vesicles: 10 mM HEPES, 100 mM MCI, pH 7.0. A base pulse (20 μL of 0.5 M NaOH) was applied to each vesicular solution at 50 s, followed by adding 20 μL of c5a in DMF at 100 s. For each group, the vesicles were lysed after 200 s by adding 0.1% Triton X-100 to obtain the maximum emission intensity for normalization. The emission intensities of the intravesicular HPTS at 510 nm, I405 and I450, corresponding to two excitation wavelengths (405 and 450 nm) were monitored simultaneously, based on which the normalized intensity ratios (I405/I450) of the two emision intensities were obtained.

[4] = Isothermal titration calorimetry (ITC), ClO4^−; format: binding; details: 25° C.
Method: Isothermal titration calorimetry (ITC) experiments were performed using a MicroCal VP-ITC. ITC experiments were conducted by adding ~1.5 mL of a solution containing c5a to the sample cell. Followed by titrating 10 μL aliquots of a solution containing the corresponding TBA·X salt (~10-14× concentration of c5a solution) from the syringe into the sample cell. Heats of dilution were obtained by titrating 10 μL aliquots of the TBA·X solution from the syringe into the sample cell in the absence of c5a. The heats of dilution were subtracted from the raw data. ITC data processing and curve fitting was done using the Origin program (MicroCal).
Two-step competition ITC experiments for determining the Ka of c5a and iodide. In CH3CN:CHCl3 (5:95, v/v), the binding affinity of c5a for I^− was too high to be determined with direct NMR or ITC titration. Instead, two-step competition ITC experiments with Cl^− as the competitor were performed.

## CCCCCCCCOCC(C)(C)C(=O)Nc1ccc2cc1C(=O)Nc1ccc(NC(=O)C(C)(C)COCCCCCCCC)c(c1)C(=O)Nc1ccc(NC(=O)C(C)(C)COCCCCCCCC)c(c1)C(=O)Nc1ccc(NC(=O)C(C)(C)COCCCCCCCC)c(c1)C(=O)Nc1ccc(NC(=O)C(C)(C)COCCCCCCCC)c(c1)C(=O)N2 [c5a]
[1]
  Association constant Ka, 1:1 complex with IO4^−: (1.18 ± 0.08) × 10^4 M^−1
[2]
  increase of ASL thickness vs control CF: more than 50%
[2]; X-Z confocal
  ASL thickness: 7.8±1.7 μm
[3]
  transmembrane ion transport in the presence of LiCl, NaCl, KCl, or RbCl: insignificant difference
[4]; DMSO-d6:CDCl3 (15:85, v/v) column, ITC measurements (footnote d)
  Association constant Ka, 1:1 complex with ClO4^−: (1.90 ± 0.02) × 10^4 ^d M^−1
[4]; DMSO:CHCl3 (5:95, v/v), ITC
  Association constant Ka, 1:1 complex with ClO4^−: (4.50 ± 0.50) × 10^5 M^−1
